Values of other authors, collected in patent US20140213605A1, “METHODS FOR TREATING EYE DISORDERS USING OPIOID RECEPTOR ANTAGONISTS” (priority 2013, published 2014).

How the values were obtained:
[1] = in vivo

## Oc1ccc2c3c1O[C@H]1[C@H](O)CC[C@@]4(O)[C@@H](C2)N(CC2CC2)CC[C@]314 [6-β-naltrexol]
[1]
  Bound to plasma protein: Approximately 20%

## O=C1CC[C@@]2(O)[C@H]3Cc4ccc(O)c5c4[C@@]2(CCN3CC2CC2)[C@H]1O5 [Naltrexone]
Rat cornea; systemically administered
  Effect on incidence of re-epithelialization of the rat cornea: markedly influenced the incidence of re-epithelialization
Rat cornea; topical application in sterile water
  Effect on re-epithelialization of the rat cornea: not effective
[1]
  Excreted unchanged: Less than 1%
